Laboratory results from publication PMC3871618 (PLoS ONE, 2013).

Experiments:
ABCB1 [1] = target: T1, ABCB1 (Homo sapiens, UniProt P08183); assay: ABCB1-ATPase inhibition assay (verapamil-stimulated), Sf9 membranes; format: biochemical; design: purchased Solvo Biotechnology (Szeged, Hungary); host or cells: Sf9 insect cell membranes; conditions: 140 nM to 300 µM
Procedure: (§1) The drug efflux function of ABCB1 is linked to hydrolysis of ATP by ATPase, which is stimulated in the presence of ABCB1 substrates. In the activation assay, transported substrates can stimulate baseline vanadate-sensitive ATPase activity, whereas in the inhibition assay, which is carried out in the presence of a known activator of the transporter, inhibitors may reduce the maximal vanadate-sensitive ATPase activity. ATPase activity was measured by assessing the amount of phosphate liberated from ATP by the ABCB1 transporter using the […] ATPase kit for ABCB1 according to the manufacturer’s instructions. For this purpose, Sf9 cell membranes (4 µg protein per well) were mixed with each of the test compounds (singly) in solutions with concentrations ranging from 140 nM to 300 µM, then incubated at 37°C for 10 min in the presence or absence of 1.2 mM sodium orthovanadate. The reaction was started by adding 10 mM ATP solution (magnesium salt) to the reaction mixture, stopped 10 min later, and the absorbance at 590 nm was measured after a further 30 min incubation (GeniosPlus apparatus; Tecan, Männedorf, Switzerland). The ATPase activity in each sample was determined as the difference in liberated amounts of phosphate measured in the presence and absence of 1.2 mM sodium orthovanadate. Phosphate standards were prepared in each plate and verapamil served as a positive control for ABCB1 stimulation. The results are expressed as vanadate-sensitive ATPase activities.

ABCB1 [2] = target: T1, ABCB1; assay: HOE (Hoechst 33342) accumulation in MDCKII-ABCB1 cells; format: cell-based; design: expressed in transfected cells; host or cells: MDCKII (canine kidney) cells transduced with human ABCB1, from Prof; Piet Borst and Dr. Alfred Schinkel (The Netherlands Cancer Institute); conditions: human, probe Hoechst 33342 (HOE), 8 µM, CDKi applied at their respective IC50 concentrations, % as strongly as LY, read-out: Inhibition of HOE efflux relative to LY
Procedure: (§2) To investigate the inhibitory activity of CDKi on ABCB1, the intracellular accumulation of HOE, a fluorescent ABCB1 substrate, was examined in both MDCKII-ABCB1 and MDCKII parent cell lines in the presence and absence of the tested compounds. The reduction in fluorescence intensity in ABCB1-transduced cells indicates the efflux activity of the ABCB1 transporter, its inhibition increases HOE accumulation and thus the intracellular fluorescence.
(§3) The assay was conducted as previously described and optimized for application in ABCB1-expressing cells. Briefly, MDCKII-ABCB1 and MDCKII parent cells were seeded at 5×10^4 cells per well on a 96-well culture plate and used for accumulation experiments after 24 h cultivation. The medium was removed and cells were washed twice with prewarmed phosphate buffered saline (PBS) at pH 7.4.

ABCB1 transporter = target: T2, ABCB1 transporter (Homo sapiens, UniProt P08183); assay: as above; format: cell-based; conditions: 8 µM HOE, end-point fluorescence at 30 min, 50% of each compound's own maximum inhibitory activity, read-out: IC50, inhibition of ABCB1-mediated efflux of HOE
T2 construct: expressed in transfected cells; host or cells: MDCKII (canine kidney) cells transduced with human ABCB1, from Prof; Piet Borst and Dr. Alfred Schinkel (The Netherlands Cancer Institute)
T2 sequence (P08183 whole entry): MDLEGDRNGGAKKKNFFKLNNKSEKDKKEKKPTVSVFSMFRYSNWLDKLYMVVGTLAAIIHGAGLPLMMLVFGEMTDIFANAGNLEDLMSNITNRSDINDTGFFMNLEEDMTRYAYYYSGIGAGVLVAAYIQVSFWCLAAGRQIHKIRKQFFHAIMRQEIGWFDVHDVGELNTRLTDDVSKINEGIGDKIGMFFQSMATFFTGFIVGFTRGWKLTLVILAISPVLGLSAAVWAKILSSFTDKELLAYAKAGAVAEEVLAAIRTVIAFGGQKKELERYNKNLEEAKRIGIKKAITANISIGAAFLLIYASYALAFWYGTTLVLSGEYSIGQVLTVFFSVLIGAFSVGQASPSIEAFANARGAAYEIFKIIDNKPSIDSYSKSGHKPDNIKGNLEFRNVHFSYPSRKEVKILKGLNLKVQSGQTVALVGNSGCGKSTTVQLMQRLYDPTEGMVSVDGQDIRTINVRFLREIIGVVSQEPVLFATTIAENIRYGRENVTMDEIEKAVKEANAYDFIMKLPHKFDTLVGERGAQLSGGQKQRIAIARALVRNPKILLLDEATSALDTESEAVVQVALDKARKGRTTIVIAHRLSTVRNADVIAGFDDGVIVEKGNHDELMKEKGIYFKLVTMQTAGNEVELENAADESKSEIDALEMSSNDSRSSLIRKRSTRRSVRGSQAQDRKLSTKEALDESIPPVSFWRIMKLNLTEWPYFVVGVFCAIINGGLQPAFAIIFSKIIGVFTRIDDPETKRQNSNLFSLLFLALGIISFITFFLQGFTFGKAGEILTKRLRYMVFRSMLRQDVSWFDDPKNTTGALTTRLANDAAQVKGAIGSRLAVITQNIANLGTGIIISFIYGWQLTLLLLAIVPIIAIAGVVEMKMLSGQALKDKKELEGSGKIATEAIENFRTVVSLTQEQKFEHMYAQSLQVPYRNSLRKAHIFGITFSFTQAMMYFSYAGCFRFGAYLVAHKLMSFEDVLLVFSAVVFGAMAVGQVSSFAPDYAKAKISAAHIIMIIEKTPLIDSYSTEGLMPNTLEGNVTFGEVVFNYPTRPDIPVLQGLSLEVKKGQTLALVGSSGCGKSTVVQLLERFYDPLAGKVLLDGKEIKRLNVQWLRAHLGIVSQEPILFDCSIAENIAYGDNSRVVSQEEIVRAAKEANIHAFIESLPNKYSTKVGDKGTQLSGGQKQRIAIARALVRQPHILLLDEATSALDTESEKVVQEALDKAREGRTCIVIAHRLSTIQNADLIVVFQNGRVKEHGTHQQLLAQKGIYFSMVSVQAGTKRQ
Procedure: as §2, §3

ABCB1 [3] = target: T1, ABCB1; assay: ABCB1-ATPase activation assay (baseline), Sf9 membranes; format: biochemical; design: purchased Solvo Biotechnology (Szeged, Hungary); host or cells: Sf9 insect cell membranes; conditions: from ATPase activity in Sf9 membranes overexpressing human ABCB1
Procedure: as §1

HepG2 cells = assay: XTT cytotoxicity, CDKi + DNR combination (Chou-Talalay); format: cell-based, human; conditions: HepG2, 72 h
Procedure: (§4) 1×10^4 MDCKII-ABCB1, 1×10^4 MDCKII parent, 2×10^4 HCT-8, or 2×10^4 HepG2 cells were grown in 96-well culture plates and incubated for 24 h. Individual CDKi diluted with growth medium were added to the exponentially growing cells and the resulting mixtures were incubated for 72 h at 37°C, 5% CO2. Cytotoxicity was then assessed using the XTT assay as follows: cells were incubated with 0.167 mg/mL XTT and 4 µM PMS in Opti-MEM for 2 h. The absorbance of the soluble formazan released was measured at 470 nm on a microplate reader (Tecan, Männedorf, Switzerland).
(§5) The combination index (CI) method of Chou-Talalay, based on the median-effect equation, was used to calculate combined drug effects. This approach offers quantitative definitions for additive, synergistic and antagonistic effects (CI values of 0.9–1.1, <0.9, and >1.1, respectively). Combination experiments were performed in a constant-ratio experimental design as recommended for the most efficient data analysis, and the generated data were used to quantify dose-reduction indices (DRI) for pairs of the tested drugs. DRI represents the fold-change of a focal effect when individual agents are used simultaneously relative to their separate effects, and their activity is synergistic if DRI > 1. […] The data acquired from these drug combination experiments were analyzed using CompuSyn ver. 3.0.1 software (ComboSyn Inc., Paramus, NJ, USA).

HCT-8 cells = assay: as above; conditions: HCT-8, 72 h
Procedure: as §4, §5

MDCKII parent cells = assay: as above; format: cell-based; conditions: 72 h
Procedure: as §4, §5

[4] = DNR combined with Olomoucine II, ratio 1∶20.5
[5] = DNR combined with Roscovitine, ratio 1∶47.0
[6] = DNR combined with Olomoucine II, ratio 1∶6.3
[7] = DNR combined with Purvalanol A, ratio 1∶17.7
[8] = DNR combined with Roscovitine, ratio 1∶17.0
[9] = DNR combined with Olomoucine II, ratio 1∶9.2
[10] = DNR combined with Purvalanol A, ratio 1∶11.7
[11] = DNR combined with Roscovitine, ratio 1∶12.3

T1 sequence (P08183 whole entry): as above

CN1CC[C@H](c2c(O)cc(O)c3c(=O)cc(-c4ccccc4Cl)oc23)[C@H](O)C1 [flavopiridol]
Effect on verapamil-stimulated vanadate-sensitive ATPase activity of ABCB1 (ABCB1 [1]): only slightly reduced it at the highest tested concentration | inhibition at 30 min (ABCB1 [2]): 31% | IC50 (ABCB1 transporter): 16.9 µM | ABCB1 substrate classification (ABCB1 [3]): non-substrates of ABCB1

COc1cccc2c1C(=O)c1c(O)c3c(c(O)c1C2=O)C[C@@](O)(C(C)=O)C[C@@H]3O[C@H]1C[C@H](N)[C@H](O)[C@H](C)O1 [DNR, daunorubicin]
DRI at Fa 0.75, drug I (DNR) (HepG2 cells; [4]): 2.55±0.03 | DRI at Fa 0.9, drug I (DNR) (HepG2 cells; [4]): 4.68±0.09 | DRI at Fa 0.9, drug I (DNR) (HepG2 cells; DNR combined with Purvalanol A, ratio 1∶43.0): 4.05±0.08 | DRI at Fa 0.75, drug I (DNR) (HepG2 cells; [5]): 2.72±0.02 | DRI at Fa 0.9, drug I (DNR) (HepG2 cells; [5]): 5.02±0.03 | DRI at Fa 0.5, drug I (DNR) (HCT-8 cells; [6]): 3.11±0.13 | DRI at Fa 0.75, drug I (DNR) (HCT-8 cells; [6]): 4.14 ±0.08 | DRI at Fa 0.9, drug I (DNR) (HCT-8 cells; [6]): 5.45±0.02 | DRI at Fa 0.75, drug I (DNR) (HCT-8 cells; [7]): 3.12±0.03 | DRI at Fa 0.9, drug I (DNR) (HCT-8 cells; [7]): 4.36±0.13 | DRI at Fa 0.5, drug I (DNR) (HCT-8 cells; [8]): 2.63±0.02 | DRI at Fa 0.75, drug I (DNR) (HCT-8 cells; [8]): 3.96±0.05 | DRI at Fa 0.9, drug I (DNR) (HCT-8 cells; [8]): 5.96±0.17 | DRI at Fa 0.5, drug I (DNR) (MDCKII parent cells; [9]): 2.38±0.08 | DRI at Fa 0.75, drug I (DNR) (MDCKII parent cells; [9]): 3.07±0.06 | DRI at Fa 0.9, drug I (DNR) (MDCKII parent cells; [9]): 3.96±0.03 | DRI at Fa 0.5, drug I (DNR) (MDCKII parent cells; [10]): 2.25±0.03 | DRI at Fa 0.75, drug I (DNR) (MDCKII parent cells; [10]): 2.84±0.05 | DRI at Fa 0.9, drug I (DNR) (MDCKII parent cells; [10]): 3.60±0.09 | DRI at Fa 0.75, drug I (DNR) (MDCKII parent cells; [11]): 2.74±0.06 | DRI at Fa 0.9, drug I (DNR) (MDCKII parent cells; [11]): 3.57±0.09
